# Experimental data taken from paper PMC11751314, “Engineering of acyl ligase domain in non-ribosomal peptide synthetases to change fatty acid moieties of lipopeptides” (Communications Chemistry, 2025).
# Tests used:
# [1] = target: T1, ItuAL_WT-MycACP (ituAL-ACP1) (Bacillus subtilis, UniProt Q93I56); experiment: HPLC of fatty acyl-AMP formed ([…] nm); assay type: biochemical; conditions: 1 mM fatty acid, 1 mM ATP, 50 mM MgCl2, 50 mM HEPES pH 7.5, 0.01% Brij35, 30% DMSO, 30 °C, 30 min; 10 μM enzyme, apo-ACP
# T1 construct: gene ituA; N-terminally His-tagged fusion of ItuAL (584 aa, RB14) with adjacent MycACP (ATCC6633); pET28a, E. coli BL21-AI; ACP in apo-form; catalytic pocket lies wholly in ItuAL; with Mycosubtilin synthase subunit A, first acyl carrier protein domain
# T1 sequence (Q93I56 1-584): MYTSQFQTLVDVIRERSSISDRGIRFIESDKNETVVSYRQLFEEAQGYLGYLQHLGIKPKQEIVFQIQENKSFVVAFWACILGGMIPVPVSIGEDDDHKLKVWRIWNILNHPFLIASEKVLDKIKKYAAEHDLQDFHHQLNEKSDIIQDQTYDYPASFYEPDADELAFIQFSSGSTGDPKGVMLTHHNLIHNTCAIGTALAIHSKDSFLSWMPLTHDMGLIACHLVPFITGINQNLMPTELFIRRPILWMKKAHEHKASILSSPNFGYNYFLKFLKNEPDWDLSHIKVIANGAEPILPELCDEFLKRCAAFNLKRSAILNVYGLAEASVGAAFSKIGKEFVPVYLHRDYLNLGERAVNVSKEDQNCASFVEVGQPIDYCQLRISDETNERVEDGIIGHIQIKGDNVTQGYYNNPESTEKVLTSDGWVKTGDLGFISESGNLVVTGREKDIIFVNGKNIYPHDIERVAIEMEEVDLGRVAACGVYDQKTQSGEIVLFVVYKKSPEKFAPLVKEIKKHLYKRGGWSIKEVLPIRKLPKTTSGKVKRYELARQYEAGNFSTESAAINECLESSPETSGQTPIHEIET
# T1 sequence (Q9R9J1 586-668 partner limits assumed): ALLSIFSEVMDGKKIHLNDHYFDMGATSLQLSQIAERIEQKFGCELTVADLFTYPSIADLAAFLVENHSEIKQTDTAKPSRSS
# (ituAL-ACP1) = target: T2, (ituAL-ACP1) (Bacillus subtilis, UniProt Q93I56, F208G); experiment: HPLC of fatty acyl-AMP formed ([…] nm); assay type: biochemical; conditions: 1 mM fatty acid, 1 mM ATP, 50 mM MgCl2, 50 mM HEPES pH 7.5, 0.01% Brij35, 30% DMSO, 30 °C, 30 min; 10 μM enzyme, apo-ACP
# T2 construct: gene ituA; N-terminally His-tagged fusion of ItuAL (584 aa, RB14) with adjacent MycACP (ATCC6633); pET28a, E. coli BL21-AI; ACP in apo-form; catalytic pocket lies wholly in ItuAL; with Mycosubtilin synthase subunit A, first acyl carrier protein domain
# T2 sequence (Q93I56 entry or part of it F208G, one chain of several): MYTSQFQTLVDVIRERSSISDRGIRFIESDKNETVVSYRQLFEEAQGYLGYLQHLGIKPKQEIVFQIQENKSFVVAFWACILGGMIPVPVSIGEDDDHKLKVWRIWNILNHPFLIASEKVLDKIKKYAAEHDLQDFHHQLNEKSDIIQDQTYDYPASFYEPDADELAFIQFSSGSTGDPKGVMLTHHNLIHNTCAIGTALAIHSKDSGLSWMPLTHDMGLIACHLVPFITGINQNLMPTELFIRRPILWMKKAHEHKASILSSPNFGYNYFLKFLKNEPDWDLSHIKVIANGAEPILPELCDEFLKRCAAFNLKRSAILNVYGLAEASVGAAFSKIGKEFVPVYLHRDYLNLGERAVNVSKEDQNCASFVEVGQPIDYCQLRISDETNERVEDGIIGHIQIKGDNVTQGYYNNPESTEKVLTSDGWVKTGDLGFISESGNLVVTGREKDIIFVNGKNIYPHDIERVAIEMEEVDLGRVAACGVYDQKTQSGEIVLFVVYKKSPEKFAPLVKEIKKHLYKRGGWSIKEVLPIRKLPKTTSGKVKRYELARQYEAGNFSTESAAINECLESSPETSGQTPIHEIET
SMILES,relative activity (C10 = 100%) [1],relative activity (C10 = 100%) ((ituAL-ACP1))
"CCCCCCCCCCCC(=O)O [C12, lauric acid]",ItuAL_WT exhibited the highest activity against lauric acid (C12),–
"CCCCCCCCCCCCCCC(=O)O [C15, pentadecanoic acid]",–,ItuAL_F208G exhibited the highest activity against pentadecanoic acid (C15)
